Experimental data: patent EP2636410A1, “Utilization of the dichlorido complexes of platinum with 7-azaindole halogeno-derivatives for the preparation of drugs for the treatment of tumour diseases” (Univerzita Palackeho, priority 2012, dated 2013)

Key:
Test in all cases: In vitro cytotoxicity, MTT micro-titration analysis
Assay type in all cases: cell-based
[1] = tested on: human cancer cell line of ovarian carcinoma A2780; details: A2780 cells, 24 h incubation with complex, read-out: inhibition concentrations IC50
Method: (§1) The cytotoxic activities of the prepared complexes, as it is given below in the examples 1-6, were tested by micro-titration analysis using 3-(4,5-dimethylthiazol-2-yl)-2,5-diphenyltetrazolium bromide (MTT). The test detected living cells, whose number corresponds to the reduced MTT quantity. In vitro cytotoxicity was tested against the following human cancer cells: lung carcinoma A549, malignant melanoma G361, cervix carcinoma HeLa, ovarian carcinoma A2780, cisplatin-resistant ovarian carcinoma A2780R and prostate carcinoma LNCaP. The cells were maintained in plastic tissue culture flasks in the DMEM medium (5 g/L of glucose, 2 mM of glutamine, 100 U/mL of penicillin, 100 µg/mL of streptomycine, 10% fetal calf serum and sodium hydrogen carbonate) for cell cultures. The cell suspensions (ca 1.25 x 10^5 cells mL^-1) were pipetted (80 µL) into 96-well microplates. They were incubated at 37 °C in the CO2 atmosphere for 24 h. The tested dichlorido complexes of platinum were dissolved in N,N'-dimethylformamide (DMF) and diluted to the 50.0 mM concentration - these solutions represent the stock solutions. […]
The in vitro antitumor activity of the studied complexes cis-[PtCl2(L2)2] […] (3) against human cancer cell line of ovarian carcinoma A2780 was determined by the above-described micro-titration analysis using MTT (L2 = 3-chloro-7-azaindole, L3 = 3-iodo-7-azaindole, L6 = 5-bromo-7-azaindole).

[2] = tested on: human cancer cell line of cisplatin-resistant ovarian carcinoma A2780R; details: A2780R cells, 24 h incubation with complex, read-out: inhibition concentrations IC50
Method: as §1, with “h.” for “h. The tested dichlorido complexes of platinum were dissolved in N,N'-dimethylformamide (DMF) and diluted to the 50.0 mM concentration - these solutions represent the stock solutions.”
The in vitro antitumor activity of the studied complexes cis-[PtCl2(L2)2] […] (3) against human cancer cell line of cisplatin-resistant ovarian carcinoma A2780R was determined by the above-described micro-titration analysis using MTT (L2 = 3-chloro-7-azaindole, L3 = 3-iodo-7-azaindole, L6 = 5-bromo-7-azaindole).

[3] = tested on: human cancer cell line of cervix carcinoma HeLa; details: HeLa cells, 24 h incubation with complex, read-out: inhibition concentrations IC50
Method: as §1
The in vitro antitumor activity of the studied complexes cis-[PtCl2(L2)2] […] (3) against human cancer cell line of cervix carcinoma HeLa was determined by the above-described micro-titration analysis using MTT (L2 = 3-chloro-7-azaindole, L3 = 3-iodo-7-azaindole, L6 = 5-bromo-7-azaindole).

[4] = tested on: human cancer cell line of prostate carcinoma LNCaP; details: LNCaP cells, 24 h incubation with complex, read-out: inhibition concentrations IC50
Method: as §1
The in vitro antitumor activity of the studied complexes cis-[PtCl2(L2)2] […] (3) against human cancer cell line of prostate carcinoma LNCaP was determined by the above-described micro-titration analysis using MTT (L2 = 3-chloro-7-azaindole, L3 = 3-iodo-7-azaindole, L6 = 5-bromo-7-azaindole).

[5] = tested on: human cancer cell line of lung carcinoma A549; details: A549 cells, 24 h incubation with complex, read-out: inhibition concentrations IC50
Method: as §1
The in vitro antitumor activity of the studied complexes cis-[PtCl2(L2)2] […] (3) against human cancer cell line of lung carcinoma A549 was determined by the above-described micro-titration analysis using MTT (L2= 3-chloro-7-azaindole, L3 = 3-iodo-7-azaindole, L6 = 5-bromo-7-azaindole).

[6] = tested on: human cancer cell line of malignant melanoma G361; details: G361 cells, 24 h incubation with complex, read-out: inhibition concentrations IC50
Method: as §1
The in vitro antitumor activity of the studied complexes cis-[PtCl2(L2)2] […] (3) against human cancer cell line of malignant melanoma G361 was determined by the above-described micro-titration analysis using MTT (L2 = 3-chloro-7-azaindole, L3 = 3-iodo-7-azaindole, L6 = 5-bromo-7-azaindole).

N.N.[Cl][Pt][Cl] [cisplatin, Cis-diammine-dichloridoplatinum(II) complex, reference compound]
IC50 [1]: 12 ± 0.8 µM
IC50 [2]: 27 ± 4.6 µM
IC50 [3]: 10 ± 2.6 µM
IC50 [4]: 3.8 ± 1.5 µM
IC50 [5]: 25.8 ± 7.1 µM
IC50 [6]: 3.4 ± 0.1 µM
